Type in all cases: cell-based, human
Assay [1] has as its system cell mass of hair papilla cells and epidermal keratinocytes. In words: Immunohistofluorescent staining of hanging-drop cell mass (hair papilla cells and keratinocytes). As for the experimental part: 30% Advanced DMEM (Invitrogen), 2 mM L-glutamine, a mixture of penicillin and streptomycin (Invitrogen, 100-fold dilution) and 3.5 μl/50 ml of β-mercaptoethanol were mixed with Humedia KG-2 (Kurabo) at a ratio of 1:1.
(§1) In the case of adding BIO (Calbiochem), the BIO was dissolved to 10 mM with dimethylsulfoxide (DMSO) and added to a concentration of 0.1 to 5 μM.
(§2) Hair papilla cells were prepared to P3 or more (with P1 indicating one round of subculturing) in the presence or absence of BIO loading, while keratinocytes were prepared up to and including P3.
(§3) Each of the cells was diluted with each medium following trypsin treatment so as to obtain 1×10^5 cells.
(§4) 25 to 35 μl of each culture medium was dispensed onto the inside of the upper lid of a square culture dish measuring 10 cm on a side and mixed to prepare dome-shaped droplets of a suitable size.
(§5) Three days later, the medium was replaced with the same medium as that used above. […]
In the color version of this diagram, green coloring by vimentin antibody and red coloring by CD49f antibody can be distinguished, and each were able to be determined to be hair papilla cells and keratinocytes, respectively. […] After the cell masses formed following the addition of BIO, red-staining keratinocytes were determined to be growing in a regular manner in the form of branches within cell masses cultured in the absence of BIO. […]

Assay [2] has as its system cell masses prepared with hair papilla cells and outer root sheath cells. In words: Immunohistofluorescent staining of cell mass prepared with hair papilla cells and outer root sheath cells. On the procedure:
Each of the cell masses obtained with the hanging drop method were fixed for 5 minutes with 0.1% paraformaldehyde and submitted for staining. In addition, a portion of the cell masses were embedded in OCT solution without fixing and prepared into frozen sections with a cryostat followed by immunohistostaining.
Blocking was carried out for 6 hours with PBS(−) containing 13% bovine serum albumin (BSA).
Each of the primary antibodies indicated in the following table were diluted by 1/200 with the aforementioned PBS(−) containing 13% bovine serum albumin (BSA), added to each sample and allowed to react for 4 hours at 4° C.
The cells were washed three times with PBS(−) containing 0.02% Tween 20.
Fluorescent secondary antibody (see Excel file) diluted by 1/200 with the aforementioned PBS(−) containing 13% bovine serum albumin (BSA) was added to each sample. In addition, the nuclei of the cells were stained blue with DAPI (4′-6-diamidino-2-phenylindole).
Antibody to cytokeratin 14 (K14) expressed in epidermal keratinocytes and outer root sheath cells is used for the purpose of confirming that these cells have not differentiated to hair roots (red). Since AE13 monoclonal antibody, which specifically reacts to hair keratin (Lynch et al., J. Cell Biol., 103, 2593, 1986), recognizes 44K/46K acidic hair keratin dimer, it is used to mark differentiation into hair roots (green). […]

Assay [3] concerns STAT-3. In words: RT-PCR analysis (1) of cell mass, STAT-3. Particulars: presence of BIO compared with absence, FIG. 7. As for the experimental part:
as §2, §3, §1, §4
(§6) Three days later, the medium was replaced with the same medium as that used above.
(§7) After culturing for an additional four days, a portion of the medium was subjected to RT-PCR analysis (1) as described below. All of the remaining media was replaced with medium under conditions of the absence of BIO.
(§8) RNA was extracted from each sample using Trizol (Invitrogen). An equivalent of 200 ng of each RNA was reverse transcribed to cDNA with a reaction system consisting of 50 μl of RevTraACE (Toyobo). 1 μl of the resulting samples was applied to a PCR reaction in a 50 μl system using the primers listed below. […]

The subject of assay [4] is TWIST-1. The assay can be described thus: RT-PCR analysis (1) of cell mass, TWIST-1. Particulars: in the presence of BIO, ascribed to relative decrease of hair papilla cells, FIG. 7. As for the experimental part:
as §2, §3, §1, §4, §6, §7, §8

Assay [5] relates to Lef-1. The assay can be described thus: RT-PCR analysis (1) of cell mass, Lef-1. Particulars: in the presence of BIO (also detected in its absence), FIG. 7. On the procedure: as §2, §3, §1, §4, §6, §7, §8
Assay [6] has as its system Wnt3A. In words: Wnt3A RT-PCR, RT-PCR analysis (2) of cell mass. Particulars: FIG. 8. On the procedure:
Hair papilla cells were prepared to P3 (with P1 indicating one round of subculturing) in the presence of BIO loading, while keratinocytes were prepared up to and including P3.
(§9) Each of the cells was diluted with each medium following trypsin treatment so as to obtain 3×10^3 cells.
(§10) BIO (Calbiochem) was dissolved to 10 mM with dimethylsulfoxide (DMSO) and added to a concentration of 0.1 to 5 μM.
as §4
Three days later, the medium was replaced with the same medium as that used above. The samples were collected on the 7th day and submitted for RT-PCR analysis (2) as described below (“0 day” in FIG. 8). The medium used for the same remaining cells was replaced with medium under conditions of the absence of BIO to induce differentiation, after which the samples collected on the 3rd day were submitted for RT-PCR analysis (2) as described below (“3 days” in FIG. 8).
RNA was extracted from the samples using Trizol (Invitrogen). […]
10 μl of the reaction solution was electrophoresed at 100 V in 2% agarose gel (Cosmobio)/TAE buffer. Target bands were detected after visualizing with ethidium bromide.

Assay [7] has as its system Versican gene. In words: RT-PCR analysis (1) of cell mass, Versican. Particulars: in the presence of BIO, ascribed to relative decrease of hair papilla cells, FIG. 7. As for the experimental part:
as §2, §3, §1, §4, §6, §7, §8

For assay [8], the system named is SHH (Sonic Hedge Hog). The assay can be described thus: RT-PCR analysis (1) of cell mass, SHH. Particulars: in the presence of BIO (same in its absence), FIG. 7. On the procedure:
as §2, §3, §1, §4, §6, §7, §8

Assay [9] concerns Wnt10B. In words: Wnt10B RT-PCR, RT-PCR analysis (3), quantitative PCR of cell mass. Particulars: FIG. 9. As for the experimental part:
Hair papilla cells were prepared to P3 (with P1 indicating one round of subculturing) in the absence of BIO loading, while outer root sheath cells were prepared up to and including P3.
as §9, §10, §4, §5
RNA was extracted from the samples using Trizol (Invitrogen). […] 4 μl of the resulting samples were applied to a quantitative PCR system (LightCycler System, Roche) in a 20 μl system using the primers listed below. […]
All data was expressed as the relative expressed amount based on the expressed amount after 3 days in the case of not loading the cell mass with BIO. […] Accordingly, in this experimental system, differentiation of follicular epithelial cells (outer root sheath cells), and what is more, autonomous organogenesis were clearly determined to be induced by culturing in the presence of BIO followed by culturing after removing BIO.

Take `O=C1Nc2cc(Br)ccc2/C1=C1/Nc2ccccc2/C1=N\O` [BIO, (2′Z,3′E)-6-bromoindirubin-3′-oxime]: the “staining for the proliferation marker, K167, in the cell mass” value in [1] (cell mass formed by adding BIO 0.1 to 5 μM, central portion and branch-like end portion, FIG. 3) was “positive”. Further, the “staining by AE13 antibody (hair keratin)” value in assay [1] (hair papilla cells and epidermal keratinocytes, stimulated with BIO, no staining without BIO, FIG. 5) is recorded as “staining is observed in some cell masses”; in [2] (hair papilla cells and outer root sheath cells, BIO stimulation versus absence of BIO, FIG. 5), “considerably enhanced”. Further, the “immunostaining by Ber-EP4 antibody (hair buds)” value in assay [2] (hair papilla cells and outer root sheath cells stimulated with BIO, FIG. 6) is “clearly observed”. Moreover, in assay [3], the “expression of STAT-3 gene” value is reported as “detected prominently”. Moreover, the “expression of TWIST-1 gene” value in [4] is given as “expression appearing to decrease”. The “expression of Lef-1 gene” value in [5] is “detected”. In addition, the “expression of Wnt3A” value is given as “expression of Wnt3A was observed” in assay [6] (3rd day after removal of BIO ("3 days")) and “not being observed at all” in assay [6] (cultured in the presence of BIO, 7th day ("0 day")). In addition, the “expression of Versican gene” value in assay [7] is given as “expression appearing to decrease”. In addition, the “expression of SHH gene” value in [8] is “not detected”. Moreover, the “expression of Wnt10B, relative expressed amount” value is listed as “increased over time” in assay [9] (after removing BIO (day 10 and day 14)); “about the same level as that of a control” in assay [9] (cultured in the presence of BIO (day 7), versus control cultured in the absence of BIO).

These data come from patent US10344266B2, “Cell mass capable of serving as a primitive organ-like structure comprised of a plurality of cell types of somatic origin” (priority 2006, dated 2019).
